Assays:
rats [1] = assay: Forced swim test (FST) after microinjection; assay type: in vivo; conditions: versus controls
Text: (§1) This is indicative of less depression-like behavior in FGF2 animals.
(§2) Again, this is an index of less depression-like behavior. This is also in the same direction as the FGF2 data, consistent with the fact that both FGF2 and NCAM interact with the FGF receptor.
(§3) These observations are nevertheless consistent with the conclusions drawn from the microinjection studies above.

rats [2] = assay: Elevated plus maze (EPM) after acute microinjection; assay type: in vivo; conditions: versus controls
Text: as §1, §2, §3

rats [3] = assay: Elevated plus-maze (EPM) and light-dark (LD) anxiety tests after chronic FGF2; assay type: in vivo; conditions: 5 ng/g i.p. every 48 hours for 3 weeks
Procedure: Anxiety disorders have a high comorbidity with other neuropsychiatric disorders including Major Depression (MD). […] Rats were placed into “high anxiety” (LR) or “low anxiety” (HR) groups based on their behavior in a variety of motor and behavioral tests. Both groups of animals were administered either FGF2 (5 ng/g) or vehicle by intraperitoneal injection every 48 hours for 3 weeks. One day after the last FGF2 injection, all animals were tested in the elevated plus-maze (EPM) and light-dark (LD) anxiety test.
The apparatus for the EPM test is constructed of black Plexiglass with […] (70 cm from the floor, 45 cm long, and 12 cm wide). Illumination is provided by a 40-watt desk lamp facing a wall and placed behind one of the closed arms. The scientists put the animal inside the system. Animals that are less anxious spend more time in the open arms whereas animals that are more anxious spend less time in the open arms.
The LD test is conducted in a 30×60×30-cm Plexiglas shuttle box with a translucent cover. Each box is divided into two equal-sized compartments by a wall with a 12 cm-wide open door. One compartment is painted white and brightly illuminated, and the other is painted black with very dim light. The time each rat spends in each compartment is monitored by rows of five photocells located 2.5 cm above the grid floor of each compartment. […]

[4] = system: GAP-43, Rgs4, trkb, CCK, SST, Vgf, NCAM expression; assay: Hippocampal (dentate gyrus) gene expression in adult rats after early postnatal FGF2; assay type: in vivo; conditions: FGF2 20 ng/g s.c. the day after birth
Procedure: (§4) Methods. Sprague-Dawley rats were injected with either vehicle or FGF2 (20 ng/g, s.c.) the day after birth and sacrificed after Morris water maze testing as adults. We assessed changes in gene expression using both a candidate approach and a gene discovery approach with laser-capture microdissection of the dentate gyrus followed by microarray analyses.
Results. […] Several genes associated with neural plasticity were also found altered in the adult rats, as shown by histochemical and RNA expression assays. For example, expression of GAP-43, Rgs4, trkb, CCK, SST, and Vgf was increased, while expression of NCAM was decreased.

Sprague-Dawley rats = assay: Morris water maze learning and memory test in adults after early postnatal FGF2; assay type: in vivo; conditions: 20 ng/g s.c. the day after birth, tested as adults
Procedure: as §4

[5] = system: FGFR2 and FGFR3 exon IIIc:IIIb splice variants; assay: Real time RT-PCR of exon IIIc:IIIb splice variant ratio in frontal cortex, chronic unpredictable stress; assay type: in vivo, rats; conditions: 5 ng/g i.p. every 48 hours for three weeks
Procedure: Animals. Twenty-four male Sprague-Dawley rats weighing 220-250 g were ordered from Charles River (Wilmington, Mass.) and remained undisturbed for one week to acclimatize to housing conditions. The animals were housed in pairs on a 12 h light-dark cycle (lights on 6:00 A.M.) with food and water available ad libitum. All experiments were conducted in accordance with the NIH Guide for the Care and Use of Animals and the University Committee on the Use and Care of Animals.
FGF2 injection treatments and chronic unpredictable stress (CUS) conditions. […]
Total RNA extraction. […] Using the Bioanalyzer's concentration readings, the samples were normalized to 25 ng/μL of total RNA per subject and stored at −80° C.
cDNA synthesis. cDNA was synthesized using the iScript cDNA Synthesis Kit (Bio-Rad, Hercules, Calif.). […] The double-stranded cDNA solutions were then analyzed for quality and concentration using Invitrogen's Quant-iT PicoGreen dsDNA kit. […] The fluorescently labeled samples were analyzed with a 1420 Victor^2 Multilabel Counter (EG&G Wallac, Wellesley, Mass.) using the basic Fluorescein protocol. […]
Real time RT-PCR primer design. […] Exon sequences were analyzed using NCBI's nucleotide and protein BLAST and were matched with their corresponding protein products within the receptor structures (FIG. 11). […]

Row | Substance | climbing in FST (rats [1]) | immobility in FST (rats [1]) | swimming in FST (rats [1]) | time in the center quadrant of EPM (rats [2]) | time in the closed arms of EPM (rats [2]) | time in the open arms of EPM (rats [2]) | anxiety versus vehicle animals (rats [3]; tested one day after last injection) | anxiety-reducing effect in innately more anxious (LR) rats (rats [3]; LR versus HR rats) | expression of CCK [4] | expression of NCAM [4] | expression of Rgs4 [4] | expression of SST [4] | expression of Vgf [4] | expression of trkb [4] | expression of GAP-43 ([4]; histochemical and RNA expression assays) | time on average to find a hidden platform in Morris Water maze test (Sprague-Dawley rats) [s] | performance in learning and memory tests (Sprague-Dawley rats; versus vehicle) | effect on magnitude of IIIc:IIIb ratio changes caused by stress [5] | effect on exon IIIc:IIIb ratio ([5]; NS or S group, P>0.1)
1 | HFKDPKRLY [FGF system peptide inhibitor] | significantly less climbing | more immobility | less swimming | significantly more time | less time | equal time |  |  |  |  |  |  |  |  |  |  |  |  | 
2 | FGF2: human recombinant FGF2 (Sigma); ligand of the FGF receptor |  | less immobility | more swimming |  | significantly more time | less time | less anxious | clearly more pronounced | increased | decreased | increased | increased | increased | increased | increased | 20 | significantly better | nor did it significantly affect | did not alter the IIIc:IIIb ratio significantly
3 | EVYVVAENQQGKSKA [NCAM] |  | less immobility |  | significantly less time | more time (although not significantly more time) | less time |  |  |  |  |  |  |  |  |  |  |  |  | 

— patent US20090019557A1, “FGF2-RELATED METHODS FOR DIAGNOSING AND TREATING DEPRESSION” (priority 2005, published 2009)
